Where a name gives a salt, the structure may show the parent alone. Active and inactive are the calls of the source.
Key:
[1] = HEK293T cytotoxicity, dose response, cytotoxicity control for miR-122 modulator project, cell-based, inhibitor set, cherry-pick, set 2 (AID 720697); format: functional
[2] = miR-122 activators in hepatoma reporter cells, dose response, cell-based, Huh7 psiCHECK-miR122, Renilla luciferase, cherry-picked (AID 651956); format: functional;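 also: huh7 hepatoma cells stably carrying a psiCHECK-2 miR-122 sensor plasmid; renilla luciferase signal reporting endogenous miR-122 activity after 48 h compound exposure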
[3] = biological target: Photoreceptor-specific nuclear receptor (Homo sapiens, UniProt Q9Y5X4); format: functional, cell-based;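 also: CHO-S cells with Gal4-NCOR and VP16-NR2E3 two-hybrid luciferase reporter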
Chain of Photoreceptor-specific nuclear receptor (Q9Y5X4 whole entry, the tested form may be a part): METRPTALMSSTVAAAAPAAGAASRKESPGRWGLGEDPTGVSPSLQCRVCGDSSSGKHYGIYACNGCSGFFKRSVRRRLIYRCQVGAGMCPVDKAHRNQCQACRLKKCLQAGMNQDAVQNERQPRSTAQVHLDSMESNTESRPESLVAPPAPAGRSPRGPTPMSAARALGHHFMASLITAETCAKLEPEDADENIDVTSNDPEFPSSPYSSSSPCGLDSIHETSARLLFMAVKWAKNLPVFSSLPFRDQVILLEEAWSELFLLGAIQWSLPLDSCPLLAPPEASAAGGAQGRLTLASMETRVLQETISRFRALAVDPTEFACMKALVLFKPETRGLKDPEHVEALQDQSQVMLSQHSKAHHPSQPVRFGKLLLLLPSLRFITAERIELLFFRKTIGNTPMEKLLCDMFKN

Beta-galactosidase = Beta-galactosidase (Escherichia coli, UniProt Q8VNN2); assay: Dose response counterscreen for EBI2 assay utilizing the enzyme, b-galactosidase.; format: functional
Chain of Beta-galactosidase (Q8VNN2 whole entry): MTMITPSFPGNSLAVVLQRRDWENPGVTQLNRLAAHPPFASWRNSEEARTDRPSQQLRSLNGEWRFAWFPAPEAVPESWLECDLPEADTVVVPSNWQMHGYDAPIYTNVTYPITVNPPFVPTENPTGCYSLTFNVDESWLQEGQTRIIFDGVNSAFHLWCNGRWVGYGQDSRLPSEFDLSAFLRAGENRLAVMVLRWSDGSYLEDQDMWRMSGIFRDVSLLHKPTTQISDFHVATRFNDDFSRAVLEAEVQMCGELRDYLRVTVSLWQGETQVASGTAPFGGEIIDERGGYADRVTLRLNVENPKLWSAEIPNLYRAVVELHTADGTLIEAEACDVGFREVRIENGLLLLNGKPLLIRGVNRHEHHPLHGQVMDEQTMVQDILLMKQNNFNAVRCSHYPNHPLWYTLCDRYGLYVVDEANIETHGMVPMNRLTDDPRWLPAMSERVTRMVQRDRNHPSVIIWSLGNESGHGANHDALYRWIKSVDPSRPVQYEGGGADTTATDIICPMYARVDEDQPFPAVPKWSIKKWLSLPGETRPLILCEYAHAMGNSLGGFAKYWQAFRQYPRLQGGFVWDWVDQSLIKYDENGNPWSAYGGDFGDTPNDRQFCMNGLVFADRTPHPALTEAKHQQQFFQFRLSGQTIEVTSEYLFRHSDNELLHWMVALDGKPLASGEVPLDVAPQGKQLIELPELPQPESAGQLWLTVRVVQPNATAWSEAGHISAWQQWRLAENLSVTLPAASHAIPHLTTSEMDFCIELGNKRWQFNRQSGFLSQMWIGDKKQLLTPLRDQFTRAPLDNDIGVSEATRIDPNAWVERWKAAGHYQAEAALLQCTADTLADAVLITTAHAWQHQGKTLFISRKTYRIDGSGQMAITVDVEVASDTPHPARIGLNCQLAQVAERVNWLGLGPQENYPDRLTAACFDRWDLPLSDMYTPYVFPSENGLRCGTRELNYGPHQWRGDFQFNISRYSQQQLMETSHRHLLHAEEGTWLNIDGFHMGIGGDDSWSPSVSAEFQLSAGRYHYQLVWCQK

[4] = HEK293T cytotoxicity, dose response, cytotoxicity control for miR-122 modulator project, cell-based, activator set, cherry-pick (AID 720690); format: functional;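 also: HEK293T human cells scored for general mammalian cytotoxicity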
[5] = biological target: T1, Sentrin-specific protease 8 (Homo sapiens, UniProt Q96LD8); format: functional
T1 sequence (Q96LD8 whole entry): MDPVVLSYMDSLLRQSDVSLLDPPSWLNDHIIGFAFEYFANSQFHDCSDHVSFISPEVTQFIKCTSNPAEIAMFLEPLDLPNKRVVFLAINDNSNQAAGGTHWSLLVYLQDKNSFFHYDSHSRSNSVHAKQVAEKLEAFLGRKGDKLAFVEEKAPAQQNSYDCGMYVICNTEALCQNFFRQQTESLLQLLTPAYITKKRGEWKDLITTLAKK

[6] = biological target: T1, Sentrin-specific protease 8; format: functional; remark: listed apart in the source
[7] = control 3'UTR Renilla luciferase suppression, dose response, counter-screen for Shn3 inhibitor project, cell-based, Clone20-Shn3RL, cherry-picked (AID 624133); format: functional
[8] = Shn3 3'UTR reporter inhibitors, dose response, cell-based, Clone20 osteoblasts, firefly luciferase, cherry-picked (AID 624132); format: functional;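 also: firefly luciferase luminescence from reporter carrying the Shn3 3'UTR in osteoblasts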
[9] = HepG2 cell cytotoxicity, dose response, cytotoxicity control for Shn3 inhibitor project, CellTiter-Glo, cherry-picked (AID 624134); format: functional, cell-based
Paired box protein Pax-8 = Paired box protein Pax-8 (Homo sapiens, UniProt Q06710); assay: inhibitors of PAX8-driven TPO luciferase reporter, dose response, RMG-I cells, cherry-pick (AID 687027); format: functional, cell-based;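 also: luciferase reporter driven by Pax8 target thyroperoxidase promoter measured by SteadyGlo luminescence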
Chain of Paired box protein Pax-8 (Q06710 whole entry): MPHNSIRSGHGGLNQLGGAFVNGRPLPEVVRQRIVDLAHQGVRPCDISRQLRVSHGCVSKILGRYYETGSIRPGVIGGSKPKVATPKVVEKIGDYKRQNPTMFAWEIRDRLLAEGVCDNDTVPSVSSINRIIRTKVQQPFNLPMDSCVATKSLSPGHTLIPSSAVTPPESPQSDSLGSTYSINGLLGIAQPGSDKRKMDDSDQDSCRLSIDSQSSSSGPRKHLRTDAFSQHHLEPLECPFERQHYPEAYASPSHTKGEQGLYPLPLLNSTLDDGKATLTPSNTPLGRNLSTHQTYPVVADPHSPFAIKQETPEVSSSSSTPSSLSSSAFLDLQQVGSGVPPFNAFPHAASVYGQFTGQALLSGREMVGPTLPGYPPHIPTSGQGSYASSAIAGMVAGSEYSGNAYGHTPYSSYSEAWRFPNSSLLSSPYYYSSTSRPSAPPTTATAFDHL

cells [10] = format: functional, cell-based
[11] = biological target: T2, Nuclear receptor subfamily 0 group B member 1 (Homo sapiens, UniProt P51843); format: functional, cell-based;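 also: HEK293T cells transfected with SF-1 and DAX-1 plus StAR promoter luciferase reporter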
T2 sequence (P51843 whole entry): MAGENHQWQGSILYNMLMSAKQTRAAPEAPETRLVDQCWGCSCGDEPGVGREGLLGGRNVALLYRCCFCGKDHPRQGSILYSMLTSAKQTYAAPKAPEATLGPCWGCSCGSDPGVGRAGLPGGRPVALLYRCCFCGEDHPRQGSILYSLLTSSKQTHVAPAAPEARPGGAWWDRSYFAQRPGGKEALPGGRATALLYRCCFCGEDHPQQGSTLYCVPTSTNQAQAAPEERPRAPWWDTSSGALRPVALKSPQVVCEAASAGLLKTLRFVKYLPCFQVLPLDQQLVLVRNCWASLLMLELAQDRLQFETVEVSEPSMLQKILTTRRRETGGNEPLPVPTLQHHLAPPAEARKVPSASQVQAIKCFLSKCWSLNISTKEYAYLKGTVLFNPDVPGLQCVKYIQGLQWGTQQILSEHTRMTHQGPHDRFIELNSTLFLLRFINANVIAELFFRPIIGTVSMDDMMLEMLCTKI

INS1 = assay: beta cell apoptosis inhibitors, cytokine rescue, dose response, luminescence, retest (AID 449756); format: functional, cell-based; details: Rattus norvegicus;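 also: cell death triggered by IL-1 beta plus TNF-alpha plus IFN-gamma mixture; protective hits raise ATP signal compared with cytokine alone wells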
Caspase-3 = biological target: T3, Caspase-3 (Homo sapiens, UniProt P42574); format: functional;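 also: Dose-response selectivity test against caspase-3 for candidate inhibitors of sentrin-specific proteases (SENPs)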
T3 sequence (P42574 whole entry): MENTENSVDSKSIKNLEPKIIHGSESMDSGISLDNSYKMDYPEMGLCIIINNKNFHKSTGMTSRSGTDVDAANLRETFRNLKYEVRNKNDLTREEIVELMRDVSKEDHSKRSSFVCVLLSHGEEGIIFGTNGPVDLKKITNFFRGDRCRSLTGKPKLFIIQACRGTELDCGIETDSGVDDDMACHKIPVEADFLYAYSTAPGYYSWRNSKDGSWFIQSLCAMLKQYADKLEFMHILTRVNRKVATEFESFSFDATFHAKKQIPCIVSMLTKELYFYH

[12] = biological target: T4, Sentrin-specific protease 7 (Homo sapiens, UniProt Q9BQF6); format: functional;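 also: Luminescence-based dose-response confirmation of ultra-high-throughput screening hits, measuring inhibition of SENP7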
T4 sequence (Q9BQF6 whole entry): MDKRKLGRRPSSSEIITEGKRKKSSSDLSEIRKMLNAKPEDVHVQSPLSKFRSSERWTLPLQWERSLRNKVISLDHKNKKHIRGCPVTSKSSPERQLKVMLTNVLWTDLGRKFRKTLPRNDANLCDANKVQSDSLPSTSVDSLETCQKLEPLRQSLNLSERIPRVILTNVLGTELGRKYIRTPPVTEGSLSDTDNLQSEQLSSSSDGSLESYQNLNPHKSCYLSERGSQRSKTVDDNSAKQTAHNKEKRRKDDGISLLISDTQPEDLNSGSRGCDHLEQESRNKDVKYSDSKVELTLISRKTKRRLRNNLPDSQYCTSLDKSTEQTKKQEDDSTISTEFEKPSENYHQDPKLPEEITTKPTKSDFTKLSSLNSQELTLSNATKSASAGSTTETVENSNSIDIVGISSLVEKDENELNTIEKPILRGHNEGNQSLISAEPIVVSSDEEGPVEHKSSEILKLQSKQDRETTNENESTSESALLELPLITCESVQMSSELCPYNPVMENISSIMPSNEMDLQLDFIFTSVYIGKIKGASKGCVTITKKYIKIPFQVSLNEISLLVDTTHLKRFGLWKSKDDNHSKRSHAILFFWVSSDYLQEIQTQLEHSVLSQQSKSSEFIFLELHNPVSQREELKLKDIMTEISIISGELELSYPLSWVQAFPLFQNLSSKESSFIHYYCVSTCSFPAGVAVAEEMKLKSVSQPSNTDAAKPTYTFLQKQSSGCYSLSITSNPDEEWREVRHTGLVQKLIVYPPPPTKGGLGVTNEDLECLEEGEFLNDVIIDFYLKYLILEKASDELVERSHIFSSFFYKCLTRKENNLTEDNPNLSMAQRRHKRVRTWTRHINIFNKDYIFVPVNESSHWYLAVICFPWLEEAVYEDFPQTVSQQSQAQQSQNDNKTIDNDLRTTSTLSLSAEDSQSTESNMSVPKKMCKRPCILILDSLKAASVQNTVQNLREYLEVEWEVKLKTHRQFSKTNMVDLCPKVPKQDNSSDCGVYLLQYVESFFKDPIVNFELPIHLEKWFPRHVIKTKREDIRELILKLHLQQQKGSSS

[13] = biological target: T5, Sentrin-specific protease 6 (Homo sapiens, UniProt Q9GZR1); format: functional;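 also: Luminescence-based dose-response confirmatory assay of SENP6 inhibition, following up an ultra-high-throughput screen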
T5 sequence (Q9GZR1 whole entry): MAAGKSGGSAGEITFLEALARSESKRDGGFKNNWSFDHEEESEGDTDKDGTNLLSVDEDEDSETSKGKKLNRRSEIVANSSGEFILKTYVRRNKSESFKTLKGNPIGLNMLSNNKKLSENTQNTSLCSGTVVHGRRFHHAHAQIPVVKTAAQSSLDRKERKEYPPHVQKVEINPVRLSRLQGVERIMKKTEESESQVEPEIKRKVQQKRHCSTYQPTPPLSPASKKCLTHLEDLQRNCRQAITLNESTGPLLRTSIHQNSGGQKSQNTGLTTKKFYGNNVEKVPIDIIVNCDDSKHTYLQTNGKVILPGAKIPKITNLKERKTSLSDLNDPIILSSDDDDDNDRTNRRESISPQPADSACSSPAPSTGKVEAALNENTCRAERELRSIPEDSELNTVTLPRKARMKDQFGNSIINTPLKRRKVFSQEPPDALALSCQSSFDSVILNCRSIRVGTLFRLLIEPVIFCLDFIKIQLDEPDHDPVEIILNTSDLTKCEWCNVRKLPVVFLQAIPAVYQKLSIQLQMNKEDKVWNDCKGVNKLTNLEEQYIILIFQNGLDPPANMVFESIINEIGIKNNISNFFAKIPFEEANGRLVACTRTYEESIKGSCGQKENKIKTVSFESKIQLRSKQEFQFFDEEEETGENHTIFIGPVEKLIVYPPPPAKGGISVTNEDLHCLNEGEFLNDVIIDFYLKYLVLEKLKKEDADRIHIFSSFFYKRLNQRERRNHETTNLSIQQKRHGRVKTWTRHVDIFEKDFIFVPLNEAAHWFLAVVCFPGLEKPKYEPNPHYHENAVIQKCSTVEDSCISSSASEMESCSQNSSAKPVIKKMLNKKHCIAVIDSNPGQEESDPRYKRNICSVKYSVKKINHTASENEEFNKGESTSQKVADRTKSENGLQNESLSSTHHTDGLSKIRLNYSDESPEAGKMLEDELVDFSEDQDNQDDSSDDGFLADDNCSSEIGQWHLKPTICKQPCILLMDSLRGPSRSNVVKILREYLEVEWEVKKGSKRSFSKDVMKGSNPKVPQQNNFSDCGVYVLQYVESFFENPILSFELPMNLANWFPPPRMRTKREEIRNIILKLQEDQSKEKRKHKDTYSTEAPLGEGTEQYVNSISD

[14] = biological target: T1, Sentrin-specific protease 8; format: functional; remark: listed apart in the source
[15] = biological target: FAD-linked sulfhydryl oxidase ALR (Homo sapiens, UniProt P55789); assay: inhibitors of human ALR sulfhydryl oxidase, dose response, biochemical, H2O2 detection, luminescence, cherry-pick (AID 493248)
Chain of FAD-linked sulfhydryl oxidase ALR (P55789 whole entry): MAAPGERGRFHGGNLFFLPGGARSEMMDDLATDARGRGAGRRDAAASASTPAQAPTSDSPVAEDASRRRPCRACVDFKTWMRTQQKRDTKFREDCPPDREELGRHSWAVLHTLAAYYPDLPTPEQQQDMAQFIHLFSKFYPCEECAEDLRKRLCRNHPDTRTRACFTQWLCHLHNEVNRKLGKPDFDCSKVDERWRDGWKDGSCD

cells [16] = format: functional
[17] = biological target: Dual specificity tyrosine-phosphorylation-regulated kinase 1A (Rattus norvegicus, UniProt Q63470); format: biochemical, Homo sapiens
Mu-type opioid receptor = Mu-type opioid receptor (Homo sapiens, UniProt P35372); format: functional, cell-based;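 also: U2OS cells with beta-arrestin recruitment to OPRM1 by beta-gal complementation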
Chain of Mu-type opioid receptor (P35372 whole entry): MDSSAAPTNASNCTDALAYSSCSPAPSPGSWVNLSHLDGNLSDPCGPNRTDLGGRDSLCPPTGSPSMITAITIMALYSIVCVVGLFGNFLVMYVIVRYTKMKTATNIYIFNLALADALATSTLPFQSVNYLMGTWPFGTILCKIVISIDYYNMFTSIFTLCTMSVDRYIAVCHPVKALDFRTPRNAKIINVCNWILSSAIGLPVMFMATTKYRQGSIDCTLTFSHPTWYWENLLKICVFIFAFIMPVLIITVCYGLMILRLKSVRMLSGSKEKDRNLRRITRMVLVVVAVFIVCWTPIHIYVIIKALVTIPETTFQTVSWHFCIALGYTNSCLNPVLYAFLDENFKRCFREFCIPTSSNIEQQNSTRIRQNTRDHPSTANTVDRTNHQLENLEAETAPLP

## O=S(=O)(Nc1nccs1)c1ccc(NS(=O)(=O)c2cccs2)cc1
[1]
  AC50: 5.42 µM (active)
[2]
  AC50: 20.1 µM (active)

## O=C(Nc1ccc(N2CCN(C(=O)c3ccccc3)CC2)cc1)c1ccc2c(c1)OCO2
[3]
  IC50: 13.3 µM (inactive)

## COc1cc(-c2nc3cc(C)ccn3c2NC2CCCCC2)ccc1-c1ccc(C(C)=O)cc1
Beta-galactosidase
  IC50: 118 µM (inactive)

## C/C=C/c1ccc([C@@H]2[C@H](CO)N[C@H]2CN(CC(C)C)C(=O)c2ccccn2)cc1
[4]
  AC50: 23.5 µM (active)

## CCNc1nc2c(c(=O)n(C)c(=O)n2C)n1Cc1ccc(Cl)cc1
[3]
  IC50: 14.7 µM (inactive)

## CCC(CO)Oc1cc(NCc2ccncc2)c2ncn(C(C)C)c2c1 (stereo not drawn)
[5]
  IC50: 37.6 µM (active)
[6]
  IC50: 24.5 µM (active)

## Cc1csc(NC(=O)Cc2nn(C)c(=O)c3ccccc23)n1
[7]
  AC50: 5.18 µM (active)
[8]
  AC50: 6.82 µM (active)
[9]
  AC50: 46.5 µM (active)

## COc1ccc(S(=O)(=O)Nc2ccc3c(c2)CC(=O)N([C@@H](C)CO)C[C@@H](C)[C@H](CN(C)Cc2ccc(-c4ccccc4)cc2)O3)cc1
[4]
  AC50: 17.5 µM (active)
Paired box protein Pax-8
  AC50: 6.29 µM (active)

## CCN(C(=O)c1cc2c(=O)n3ccccc3nc2n1C)C1CCCCC1
Cells [10]
  IC50: > 67.5 µM (inactive)
[11]
  IC50: > 67.5 µM (inactive)

## O=C(Nc1ccccc1)N1CCCCN2[C@@H](CO)[C@H](c3ccc(C4=CCCCC4)cc3)[C@@H]2C1
[2]
  AC50: 10 µM (active)
[4]
  AC50: 10 µM (active)

## O=C(Nc1ccc(C(=O)N2CCCCC2)cc1)C1=CSCCO1
Cells [10]
  IC50: > 67.6 µM (inactive)
[11]
  IC50: > 67.6 µM (inactive)

## CSc1ccc(/C=C/C(=O)c2ccc(NC(=O)Cc3ccccc3)cc2)cc1
Beta-galactosidase
  IC50: > 80 µM (inactive)

## COCCC1CCCCN1C(=O)c1cc(COc2ccc(-n3cncn3)cc2)on1 (stereo not drawn)
[7]
  AC50: 1.22 µM (active)
[8]
  AC50: 0.57 µM (active)
[9]
  AC50: 50.5 µM (active)
INS1
  AC50: 3.08 µM (active)

## Cc1nc(C)c(-c2csc(Nc3ncccc3C)n2)s1
Caspase-3
  IC50: 16.4 µM (active)
[12]
  IC50: 3.96 µM (active)
[13]
  IC50: 5.89 µM (active)
[14]
  IC50: > 100 µM (inactive)

## CN(Cc1ccccc1)C(=O)COC(=O)c1ccccc1Nc1ccccc1
[1]
  AC50: 8.73 µM (active)

## Cc1ccc(/C=N/Nc2ccc3ccccc3n2)o1
Cells [10]
  IC50: > 67.5 µM (inactive)
[15]
  AC50: 5.31 µM (active)
[11]
  IC50: > 67.5 µM (inactive)

## O=C(N/N=C/c1ccc([N+](=O)[O-])o1)c1ccncc1
[5]
  IC50: 39.9 µM (active)
[6]
  IC50: 35.3 µM (active)

## COc1ccc(C(=O)/C=C/C(=O)N(CC(=O)NCCC(C)C)Cc2cccs2)c(O)c1
[7]
  AC50: 13.2 µM (active)
[8]
  AC50: 3.49 µM (active)
[9]
  AC50: 51.7 µM (active)

## O=NN(CC(=O)NNc1ccccc1)CC(=O)NNc1ccccc1
[3]
  IC50: 18.3 µM (inactive)

## CCOC(=O)N1CCN(C(=O)/C=C/c2ccc(C(C)(C)C)cc2)CC1
Beta-galactosidase
  IC50: > 80 µM (inactive)

## Cc1cc(C)cc(NC(=O)CCc2nc3sc4c(c3c(=O)[nH]2)CCCC4)c1
[3]
  IC50: 0.277 µM (active)

## C[C@@H]1CN([C@H](C)CO)C(=O)c2cc(NC(=O)Nc3ccc(C(F)(F)F)cc3)ccc2O[C@@H]1CN(C)CC1CCCCC1
[1]
  AC50: 10.2 µM (active)
[2]
  AC50: 32.8 µM (active)

## COc1ccc(/C(C)=N/Nc2nccnc2Cl)cc1
Cells [10]
  IC50: > 67.6 µM (inactive)
[11]
  IC50: > 67.6 µM (inactive)

## CCN1CCC2(CC1)N=C(c1ccc(F)cc1)C(=S)N2C(=O)c1ccc(C)cc1
[5]
  IC50: > 100 µM (inactive)
[6]
  IC50: 15.3 µM (active)

## CC1Cc2cc(/C=C3/SC(=S)NC3=O)ccc2O1 (stereo not drawn)
Caspase-3
  IC50: 16.9 µM (active)
[12]
  IC50: 9.86 µM (active)
Cells [16]
  IC50: 39.3 µM (active)
[17]
  AC50: 0.308 µM (active)
[13]
  IC50: 8.72 µM (active)
[14]
  IC50: 39.1 µM (active)

## CCCN1C[C@H](CSC)C[C@@H]2c3cccc4[nH]cc(c34)C[C@H]21 [PERGOLIDE MESYLATE]
Mu-type opioid receptor
  EC50: 92.5 µM (inactive)

Source: ChEMBL document CHEMBL1201862, “PubChem BioAssay data set” (2004)
